The target of one test is T1, alpha-A crystalline (Homo sapiens, UniProt P02489).
T1 sequence (P02489 1-173): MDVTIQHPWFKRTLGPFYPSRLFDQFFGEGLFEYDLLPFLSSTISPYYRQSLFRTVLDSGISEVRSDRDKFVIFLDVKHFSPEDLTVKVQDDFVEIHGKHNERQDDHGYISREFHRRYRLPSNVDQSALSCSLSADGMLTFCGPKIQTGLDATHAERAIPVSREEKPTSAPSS
Kind of test: Ca+2 and UVC induced aggregation of alpha-A crystalline (absorbance screen).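 Further: recombinant human alpha-A crystallin (500 µg/ml) preincubated 30 min with compound, then UV-induced aggregation tracked by absorbance at time points from 0 to 120 min.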 Format: biochemical. To be noted: 200 μM; Ca+2 and UVC induced aggregation of alpha-A crystalline.
Consider `Oc1cc(O)c2c(c1)O[C@H](c1ccc(O)c(O)c1)[C@H](O)C2` [CAP1049], for which the “Percent protection (at 200 μM)” value is recorded as −5%. The same measure, in the same setting: in the case of `COc1ccc(CCNC(=O)CCC2CCCCC2)cc1OC` [CAP1224] it was 46%. Same read-out and setting: the result for `COc1ccc(CCNC(=O)CCCC(=O)NCCc2ccc(OC)c(OC)c2)cc1OC` [CAP1228, N,N′-bis[2-(3,4-dimethoxyphenyl)ethyl]pentanediamide] reads 60%; that for `CC(CCc1ccc(O)cc1)NCCc1ccc(O)c(O)c1` (centres unmarked) [CAP1264], 3%.

In the case of `CC(CCc1ccc(O)cc1)NCCc1ccc(O)c(O)c1` (centres unmarked) [CAP1266], the “Percent protection (at 200 μM)” value was −14%. On the same count and under the same terms, the result for `COc1ccc(CCNC(=O)CCCC(=O)NCCc2ccc(OC)c(OC)c2)cc1OC` [CAP1278] reads 38%. For the compound `Oc1cc(O)c2c(c1)O[C@H](c1ccc(O)c(O)c1)[C@H](O)C2` [CAP3032], the “Percent protection (at 200 μM)” value was −16%.

`Oc1cc(O)c2c(c1)O[C@H](c1ccc(O)c(O)c1)[C@H](O)C2` [CAP3042]: the “Percent protection (at 200 μM)” value is −17%.

Staying with this test, now noted: 200 μM; Ca+2 and UVC induced aggregation of alpha-A crystalline; read-out: Percent protection (at 200 μM).
Consider `CNC[C@H](O)c1ccc(O)c(O)c1` [CAP1043], for which the inhibition at 200 µM is -5%. Still for that read-out and setting: the result for `Oc1ccc(C2CNCCc3c2cc(O)c(O)c3Cl)cc1` (centres unmarked) [CAP1044] reads -16%; that for `Oc1cc(O)c2c(c1)O[C@H](c1ccc(O)c(O)c1)[C@@H](O)C2` [CAP1047], -17%; that for `O=C(O)[C@H]1OC(Oc2cc3oc(-c4ccccc4)cc(=O)c3c(O)c2O)[C@H](O)[C@@H](O)[C@@H]1O` (some centres unmarked) [CAP1052], 3%. Still for that read-out and setting: in the case of `O=c1c(O)c(-c2ccc(O)c(O)c2)oc2cc(O)ccc12` [CAP1053] it was 52%; in that of `C[C@@](Cc1ccc(O)c(O)c1)(NN)C(=O)O` [CAP1055], 1%; in that of `C[C@](N)(Cc1ccc(O)c(O)c1)C(=O)O` [CAP1056], -5%. The same measure, in the same setting: the result for `O=C(NCCc1ccc(O)c(O)c1)C12CC3CC(CC(C3)C1)C2` [CAP1057] reads -8%; that for `COc1cc(CC2NCCc3cc(O)c(O)cc32)cc(OC)c1OC` (centres unmarked) [CAP1058], -27%. Regarding `O=C1c2ccccc2C(=O)c2c1cc(S(=O)(=O)O)c(O)c2O` [CAP1072], the inhibition at 200 µM was determined as 53%. With `COc1cc(/C=N/c2cccc(C)n2)cc([N+](=O)[O-])c1O` [CAP1110], the inhibition at 200 µM came to 19%. Same read-out and setting: in the case of `COc1cc(CNc2cccc(C)n2)cc([N+](=O)[O-])c1O` [CAP1112] it was 12%; in that of `CCN(CC)C(=O)/C(C#N)=C/c1cc(O)c(O)c([N+](=O)[O-])c1` [CAP1159], 27%; in that of `O=C(OC[C@H]1OC(OC(=O)c2cc(O)c(O)c(OC(=O)c3cc(O)c(O)c(O)c3)c2)[C@H](OC(=O)c2cc(O)c(O)c(OC(=O)c3cc(O)c(O)c(O)c3)c2)[C@@H](OC(=O)c2cc(O)c(O)c(OC(=O)c3cc(O)c(O)c(O)c3)c2)[C@@H]1OC(=O)c1cc(O)c(O)c(OC(=O)c2cc(O)c(O)c(O)c2)c1)c1cc(O)c(O)c(OC(=O)c2cc(O)c(O)c(O)c2)c1` (some centres unmarked) [CAP1176], 76%. Regarding `Oc1ccc(CCNCCCCCCNCCc2ccccc2)cc1O` [CAP1215], the inhibition at 200 µM is -47%. Still for that read-out and setting: in the case of `O=C1c2ccc(S(=O)(=O)O)c(O)c2C(=O)c2ccc(S(=O)(=O)O)c(O)c21` [CAP1219] it was -5%; in that of `O=C1c2ccccc2C(=O)c2c1ccc(S(=O)(=O)O)c2O` [CAP1220], 20%. `COc1ccc(CCNC(=O)C2CCCCC2)cc1OC` [CAP1222]: the inhibition at 200 µM worked out at 38%.

`CCC(CC)C(=O)NCCc1ccc(OC)c(OC)c1` [CAP1223]: the inhibition at 200 µM came to 29%.

Turning to `COc1ccc(CCNC(=O)CCCCC(=O)NCCc2ccc(OC)c(OC)c2)cc1OC` [CAP1225], the inhibition at 200 µM turned out to be 50%.

In the case of `COc1ccc(CCNC(=O)C2CCC2)cc1OC` [CAP1226, N-[2-(3,4-dimethoxyphenyl)ethyl]cyclobutanecarboxamide], the inhibition at 200 µM was 72%. Still for that read-out and setting: the result for `COc1ccc(CCNC(=O)C2CCN(C(=O)Cc3ccccc3)CC2)cc1OC` [CAP1227, N-[2-(3,4-dimethoxyphenyl)ethyl]-1(phenylacetyl)-4-piperidinecarboxamide] reads 46%; that for `COc1ccc(CCNC(=O)CCCC(=O)NCOc2ccc(OC)cc2)cc1` [CAP1229], 22%; that for `COc1ccc(CCNC(=O)C2CC2)cc1OC` [CAP1230, N-[2-(3,4-dimethoxyphenyl)ethyl]cyclopropanecarboxamide], 18%. Same read-out and setting: in the case of `COc1ccc(CCNC(=O)C2CCCC2)cc1OC` [CAP1231, N-[2-(3,4-dimethoxyphenyl)ethyl]cyclopentanecarboxamide] it was 51%; in that of `COc1ccc(CCNC(=O)C2CCN(C(=O)c3ccc(F)cc3)CC2)cc1OC` [CAP1232], 41%. As for `COc1ccc(CCNC(=O)CCCC2CCCC2)cc1OC` [CAP1236], the inhibition at 200 µM is -2%. Consider `O=C(CC1CCC1)NCCc1ccc(O)c(O)c1` [CAP1239], for which the inhibition at 200 µM was 23%. For `CCCCCCCCCCCCCCCCCC(=O)NCCc1ccc(O)c(O)c1` [CAP1241], the inhibition at 200 µM turned out to be 135%. Still for that read-out and setting: in the case of `NCCc1ccc(O)c(O)c1` [CAP1265] it was -6%. Same read-out and setting: in the case of `COc1ccc(CCNC(=O)CCC2CCCCC2)cc1OC` [CAP1274] it was 55%. On the same count and under the same terms, in the case of `COc1ccc(CC(=O)NC2CCCCCCCCCCC2)cc1OC` [CAP1279] it was 5%; in that of `O=C(NCCc1ccccc1)C1CCC(C(=O)NCCc2ccccc2)CC1` (centres unmarked) [CAP1280], 44%. With `COc1ccc(CCNC(=O)CC23CC4CC(CC(C4)C2)C3)cc1OC` [CAP1281], the inhibition at 200 µM stood at 64%. The same measure, in the same setting: in the case of `NC(=O)c1ncn([C@@H]2O[C@H](CO)[C@@H](O)[C@H]2O)n1` [CAP1380] it was 16%. Same read-out and setting: the result for `COc1cc2cc(C(=O)O)[nH]c2cc1OC` [CAP1447] reads 22%.

On to `O=c1c(O)c(-c2ccc(O)c(O)c2)oc2cc(O)cc(O)c12` [CAP1451], for which the inhibition at 200 µM is 35%.

As for `Oc1cc(O)c2c(c1)O[C@@H](c1ccc(O)c(O)c1)[C@@H](O)C2` [CAP1458], the inhibition at 200 µM was -17%.

On to `COc1cc(/C=C/C(=O)/C=C(O)/C=C/c2ccc(O)c(OC)c2)ccc1O` [CAP1459], for which the inhibition at 200 µM is -95%. On the same count and under the same terms, in the case of `O=C(O[C@H]1Cc2c(O)cc(O)cc2O[C@H]1c1cc(O)c(O)c(O)c1)c1cc(O)c(O)c(O)c1` [CAP1460] it was 1%; in that of `CC(=O)Oc1cc2cc[nH]c2cc1OC(C)=O` [CAP1517], 40%; in that of `COC(=O)[C@@H](NC(C)=O)c1ccc(OC(C)=O)c(OC(C)=O)c1` [CAP1518], -4%.

`COc1cc2cc[nH]c2cc1OC` [CAP1519]: the inhibition at 200 µM was 9%.

Regarding `COc1cc2nc(N3CCN(C(=O)C4COc5ccccc5O4)CC3)nc(N)c2cc1OC` (centres unmarked) [CAP3035], the inhibition at 200 µM stood at 114%. For the compound `O=C1O[C@H]([C@@H](O)CO)C(O)=C1O` [CAP3037], the inhibition at 200 µM was -2%. The same measure, in the same setting: in the case of `COc1cc(/C=C/C(=O)CC(=O)/C=C/c2ccc(O)c(OC)c2)ccc1O` [CAP3040] it was 4%; in that of `O=C(O)/C=C/c1ccc(O)c(O)c1` [CAP3062], 16%; in that of `COc1ccc(/C=C/C(=O)O)cc1OC` [CAP3064], 12%. On the same count and under the same terms, in the case of `CC(=O)/C=C/c1ccc(O)c(O)c1` [CAP3065] it was -32%; in that of `COc1ccc(/C=C/C(C)=O)cc1OC` [CAP3066], 21%. With `CC(=O)c1cc(C)cc([N+](=O)[O-])c1O` [CAP3071], the inhibition at 200 µM stood at 30%.

As for `COc1cc(C(=O)O)cc(OC)c1O` [CAP3107], the inhibition at 200 µM is 7%. The same measure, in the same setting: the result for `Oc1cc2cc[nH]c2cc1O` [CP1194] reads 25%.

Still in this test, the particulars now being: preventing Ca+2 and UVC induced aggregation of alpha-A crystalline.
Consider `N[C@@H](Cc1ccc(O)c(O)c1)C(=O)O` [CAP1042], for which a half-maximal response (EC50) required 860 µM. Same read-out and setting: in the case of `O=c1c(O)c(-c2ccc(O)c(O)c2)oc2cc(O)ccc12` [CAP1053] it was 461 µM; in that of `CCN(CC)C(=O)/C(C#N)=C/c1cc(O)c(O)c([N+](=O)[O-])c1` [CAP1159], 313 µM.

Consider `COc1ccc(CCNC(=O)CCC2CCCCC2)cc1OC` [CAP1224], for which the response was half-maximal at 880 µM (EC50).

`COc1ccc(CCNC(=O)C2CCC2)cc1OC` [CAP1226, N-[2-(3,4-dimethoxyphenyl)ethyl]cyclobutanecarboxamide] yielded an EC50 of 46.2 µM. The same measure, in the same setting: the result for `COc1ccc(CCNC(=O)C2CCN(C(=O)Cc3ccccc3)CC2)cc1OC` [CAP1227, N-[2-(3,4-dimethoxyphenyl)ethyl]-1(phenylacetyl)-4-piperidinecarboxamide] reads 288 µM. Same read-out and setting: the result for `O=C(NCCc1ccccc1)C1CCC(C(=O)NCCc2ccccc2)CC1` (centres unmarked) [CAP1280] reads 193 µM; that for `Oc1cc2cc[nH]c2cc1O` [CP1194], 1100 µM.

The test is the same for the next values; noted with them: read-out: Percent protection (at 200 μM).
For `CC(CCc1ccc(O)cc1)NCCc1ccc(O)c(O)c1` (centres unmarked) [CAP1051], the inhibition at 200 µM was -28%. The same measure, in the same setting: in the case of `CC1CCC(NC(C)Cc2ccc(O)c(O)c2)CC1` (centres unmarked) [CAP1240] it was -13%.

As for `Cc1cc2c(C(C)C)c(O)c(O)c(C=O)c2c(O)c1-c1c(C)cc2c(C(C)C)c(O)c(O)c(C=O)c2c1O` [CAP1356], the inhibition at 200 µM is -46%.

Another test relates to human lens epithelial (HLE) cells. Nature of the test: Cell-based heat protection, viability by Alamar blue. On the set-up: Cell Heat % protection: concentration or dose not given beside the values. To be noted: Table 8. As to the method: Alamar blue was used for assessing viability. Mean±SEM of the measurements are shown.
Cell-based using assays using human lens epithelial cell lines SRA 01/04 and B3 were also performed. The cells were exposed to UV or heat and cell viability assessed 24 hours post-exposure by Alamar blue staining. In another experiment, SRA 01/04 cells were pre-incubated with varying concentrations of compounds two hours prior to UV exposure. Relative protection was measured as percent viability compared to vehicle control 24 hours following UV exposure. Mean±SEM of the measurements are shown.
Take `Nc1cc(S(=O)(=O)O)cc2cc(S(=O)(=O)O)cc(O)c12` [CAP4179]: the “Cell Heat % protection” value is 29%. On the same count and under the same terms, the result for `Nc1ccc2c(O)cc(S(=O)(=O)O)cc2c1` [CAP4180] reads 22%. On to `O=S(=O)(O)c1cc(O)c2cc(Nc3ccccc3)ccc2c1` [CAP4183], for which the “Cell Heat % protection” value worked out at 17%.

On to `O=S(=O)([O-])c1cc(O)c2cc(O)ccc2c1.[Na+]` [CAP4186], for which the “Cell Heat % protection” value was 17%. `Nc1ccc2cc(S(=O)(=O)[O-])cc(O)c2c1.[Na+]` [CAP4187]: the “Cell Heat % protection” value came out at 19%.
